Assay [1] concerns L1210. Kind of assay: Cytotoxicity against mouse L1210 cells. In kind it is functional, cell-based.
For assay [2], the system named is KB. Kind of assay: Cytotoxicity against human KB cells. The assay is classed as functional, cell-based.

≈ marks a conversion by molar mass, not a printed value.

In general, IC50 refers to the concentration at which inhibition is half-maximal. Higher therefore signals a need for much substance. As to `C=C1CCC[C@]2(C)CC[C@@H](C(C)C)[C@H](NC(=O)N[C@]3(C)CC[C@@H]4[C@H]([C@@H]5[C@H](C)CC[C@H]53)C4(C)C)[C@@H]12` [HALICHONADIN E], the IC50 worked out at 3 µg/mL (≈ 6.4 µM) in assay [1] and 2.6 µg/mL (≈ 5.55 µM) in assay [2].

The values are drawn from ChEMBL document CHEMBL1145550, “Halichonadin E, a dimeric sesquiterpenoid from the sponge Halichondria sp” (J Nat Prod, 2008).
